The text below walks through data of patent US20040024543A1, “Methods and systems for analyzing complex biological systems” (priority 2001, published 2004).

Entries after “also recorded” stand apart in the source; their conditions may differ.

Assay [1] deals with Arabidopsis thaliana. Put plainly: MOA1 phenotypic profiling of sprayed Arabidopsis (symptom scores, cluster analysis). The class given is in vivo. The following applies: MOA1, in words.
Assay [2] deals with Arabidopsis thaliana. Put plainly: SOA1 phenotypic analysis of herbicide-treated Arabidopsis (MIC, Tmic, leaf traits). The format is in vivo. The following applies: for characteristic morphological symptoms: SOA1, in words; for tMic (Dev.): SOA1, coded score of time to full range of symptoms at MIC.
The subject of assay [3] is Arabidopsis thaliana. In words: MOA1 biochemical (metabolite) profiling by LC-MS and GC-MS of sprayed Arabidopsis. The following applies: for stress-related (commonly regulated) metabolites: MOA1, 20 min and 1 hour after spraying.
In assay [4] the test system is Arabidopsis thaliana. In words: MOA1 gene expression profiling (22,000 gene arrays) of sprayed Arabidopsis. The note with it: regulated genes at 1 hr compared with internal list of essential genes.
Another assay relates to Magnaporthe grisea. The format is cell-based.
Assay [5] deals with Saccharomyces cerevisiae wild type strain BY4743. In words: AF1 yeast gene expression analysis (microarray) after antifungal drug treatment. The class given is cell-based. The following applies: 2×MIC, two hours.
Description: Saccharomyces cerevisiae wild type strain BY4743 was purchased from American Type Culture Center (ATCC, Manassas, Va.). The yeast strain was grown in YPD or SD media. […] The cultures started from fresh single colonies were grown in 1.0 ml YPD overnight at 30° C. […] The OD600 was adjusted to 1.0 with YPD media, then 2.0 ml of each was inoculated into three 250 ml flasks, each containing 50 ml of SD media. […] The cells were kept growing for another two hours, then collected by centrifugation at 4000 rpm for 5 minutes at 4° C. Pellets were washed once with ice-cold water, then were lyophilized overnight at 4° C. […] Tubes were vortexed for 30 seconds, then incubated for 10 minutes at room temperature (RT). […] Tubes were incubated for 10 minutes at RT. Samples were centrifuged for 20 minutes as before. Pellets were washed with 400 μl 70% ethanol and centrifuged for 10 minutes as before. The pellet was then dissolved in 100 μl nuclease-free water. RNA quality was determined using the Bioanalyzer 2100 and the RNA 6000 assay (Agilent Technologies, Palo Alto, Calif.) according to manufacturer's instructions. RNA concentrations were determined spectrophotometrically by measuring the absorption at 260 nm in an Ultrospec 2000 (Pharmacia Biotech, Piscataway, N.J.). […] Labeled cRNAs were evaluated using the RNA 6000 assay on the Agilent Bioanalyzer 2100. Labeled cRNA concentrations were determined spectrophotometrically by measuring the absorption at 260 nm in an Ultrospec 2000 (Pharmacia Biotech, Piscataway, N.J.). […] Each pair of samples to be hybridized were independently labeled and hybridized utilizing a fluor reversal for a total of two hybridizations per sample pair. […] Each feature was determined from an array's associated pattern file and a detection algorithm. Intensity values for each feature were determined after subtracting background derived from an average of negative control features. […] Data was evaluated after combining results from fluor reversal replicate hybridizations. […]
The mark [6] stands for this setting: MOA1, early time points / after one hour.

Turning to `Nc1nc[nH]n1` [Amitrole], the observed phenotype entry with Arabidopsis thaliana [1] was “chlorosis and not true bleaching”. In the assay on Arabidopsis thaliana [2], the characteristic morphological symptoms result is “leaf bleaching and leaf enlargement”.
Turning to `CCSC(=O)N(CC(C)C)CC(C)C` [Butylate], in the assay with Arabidopsis thaliana [1], the observed phenotype entry is recorded as “neither showed a strong herbicidal phenotype”. Besides, the “stress-related (commonly regulated) metabolites” value (“stress-related” below) in the assay on Arabidopsis thaliana [3] is listed as “neither butylate nor chlorpropham treatment resulted in many changes in these commonly regulated metabolites”.
For the compound `CP(=O)(O)CCC(N)C(=O)O` (stereo not shown) [Glufosinate], the “No. of Lethal Genes Altered” value in the assay on Arabidopsis thaliana [4] is on record as 10. Also, in the assay with Arabidopsis thaliana [2], the characteristic morphological symptoms entry was “Chlorosis and leaf curling”; the “tMic (Dev.)” value was 1. In the assay on Magnaporthe grisea (in the presence of the compound), the “nitrogen source utilization of M. grisea” value was “only able to utilize glutamine and glutamate as nitrogen sources”. In addition, the “stress-related” value with Arabidopsis thaliana [3] is reported as “Only a few, if any”.
As for `CS(=O)(=O)c1cc(C(F)(F)F)ccc1C(=O)c1cnoc1C1CC1` [Isoxaflutole], the “No. of Lethal Genes Altered” value in the assay on Arabidopsis thaliana [4] is recorded as 15. Further, in the assay on Arabidopsis thaliana [3] (MOA1, early time points), the “Alpha-tocopherol levels relative to the control” value was “not significantly changed”. For the same compound, in the assay with Arabidopsis thaliana [3] (setting [6]), the “phenylalanine level relative to the control” value is “up-regulated; also recorded: began to accumulate” and the “tyrosine level relative to the control” value was “up-regulated; also recorded: began to accumulate”.
As to `COc1nc(C)nc(NC(=O)NS(=O)(=O)c2ccccc2Cl)n1` [Chlorsulfuron], in the assay on Arabidopsis thaliana [4], the “No. of Lethal Genes Altered” value was determined as 8. Also, the characteristic morphological symptoms result with Arabidopsis thaliana [2] is listed as “anthocyanin accumulation in the older leaves accompanied by chlorosis of the newly emerging leaves”.
For the compound `C[C@@H]1[C@H](O)[C@@H](C)/C=C/C=C/C=C/C=C/C=C/C=C/C=C/[C@H](O[C@@H]2O[C@H](C)[C@@H](O)[C@H](N)[C@@H]2O)C[C@@H]2O[C@](O)(C[C@@H](O)C[C@@H](O)[C@H](O)CC[C@@H](O)C[C@@H](O)CC(=O)O[C@H]1C)C[C@H](O)[C@H]2C(=O)O` [Amphoteracin B], the “# Transripts perturbed by treatment” value in assay [5] (P < 0.05) is recorded as 4363; in assay [5] (P < 0.1), 4652.
`O=C(O)CNCP(=O)(O)O` [Glyphosate]: in the assay on Arabidopsis thaliana [2], the characteristic morphological symptoms entry is reported as “anthocyanin accumulation in the older leaves accompanied by chlorosis of the newly emerging leaves” and the “tMic (Dev.)” value came to 2. Besides, the “growth of M. grisea with ammonium or glutamine provided” value in the assay with Magnaporthe grisea is reported as “Little growth defect”. In the assay on Magnaporthe grisea (1.0 mg/ml), the “growth inhibition and remediation” value was “remediated by inclusion of aromatic amino acids”. Also, in the assay on Arabidopsis thaliana [3] (setting [6]), the “tyrosine level relative to the control” value was “decreased”.
With `CC(C)OC(=O)Nc1cccc(Cl)c1` [Chloropropham], the observed phenotype result in the assay on Arabidopsis thaliana [1] is recorded as “neither showed a strong herbicidal phenotype”. Also, the “stress-related” value in the assay on Arabidopsis thaliana [3] is given as “neither butylate nor chlorpropham treatment resulted in many changes in these commonly regulated metabolites”.
As for `CC[C@@H]([C@H](C)O)n1ncn(-c2ccc(N3CCN(c4ccc(OC[C@@H]5CO[C@@](Cn6cncn6)(c6ccc(F)cc6F)C5)cc4)CC3)cc2)c1=O` [Posaconazole], the “# Transripts perturbed by treatment” value in assay [5] (P < 0.05) is given as 690.
